Experimental data reported in patent US20220241409A1, “WATER SOLUBLE ADJUVANT AND COMPOSITION CONTAINING SAME” (Sumitomo Dainippon Pharma Co., Ltd., priority 2019, published 2022).

What was measured:
[1] = system: HLA-A*02:01 transgenic mouse; test: In vivo adjuvant activity, CTL induction with vaccine a, IFNγ ELISPOT (Test 7); conditions: for CTL counts responsive to Peptide SEQ ID No. 5: compound added to vaccine a versus no compound, Example 2 325 ng per body, Reference example 12 225 ng per body, twice, one week interval
Protocol: The in vivo adjuvant activity of the compound prepared in Example 2 and the compound prepared in Reference example 12 was evaluated in the following procedure. To vaccine a was added the compound prepared in Example 2 or the compound prepared in Reference example 12 to prepare each vaccine, and the vaccine was administered to a HLA-A*02:01 transgenic mouse, and the adjuvant activity of each vaccine was evaluated by the method of testing antigen-specific CTL induction.
Specifically, vaccine a prepared like Test 6 was injected to mice intradermally at the tail base area in an amount for administering 300 μg of Compound of formula 4 per body and 225 μg of Peptide SEQ ID NO. 3 per body. Or, in the step of preparing vaccine a, the compound prepared in Example 2 was added to the diluted peptide solution to prepare a vaccine, and the prepared vaccine was injected to mice intradermally at the tail base area in an amount for administering 300 μg of Compound of formula 4 per body, 225 μg of Peptide SEQ ID No. 3 per body, and 325 ng of the compound prepared in Example 2 per body. Or, in the step of preparing vaccine a, the compound prepared in Reference example 12 was added to the diluted peptide solution to prepare a vaccine, and the prepared vaccine was injected to mice intradermally at the tail base area in an amount for administering 300 μg of Compound of formula 4 per body, 225 μg of Peptide SEQ ID No. 3 per body, and 225 ng of the compound prepared in Reference example 12 per body. The administrations were done twice, which had one week interval. One week after the final administration, the mice were sacrificed with CO2 gas. Splenocytes were harvested from spleens removed from the mice. In particular, an ELISPOT plate was treated with an anti-mouse-IFNγ antibody on the day before preparation of the splenocyte samples. On the next day, the plate was blocked by treatment with an RPMI 1640 medium with 10% FBS. To the blocked ELISPOT plate, the prepared splenocyte samples were added at 6.25×10^4 cells/well. […] Stained spots were counted on ImmunoSpot Analyzer.

[2] = system: HLA-A*02:01 transgenic mouse; test: In vivo adjuvant activity, CTL induction with vaccine a, IFNγ ELISPOT (Test 6); conditions: for CTL counts responsive to Peptide SEQ ID No. 1 (IFNγ-producing cells) / CTL counts responsive to Peptide SEQ ID No. 5 (IFNγ-producing cells): compound added to vaccine a versus vaccine a, intradermal, Example 3 32.5 ng per body, Reference example 14 17.5 ng per body, one week later
Protocol: The in vivo adjuvant activity of the compound of Example 3 and the compound of Reference example 14 was evaluated in the following procedure. To a cocktail vaccine comprising Compound of formula 4 prepared in Reference example 9 and Peptide SEQ ID No. 3 prepared in Reference example 3 with a preliminarily-emulsified composition (hereinafter, referred to as “vaccine a”) was added the compound prepared in Example 3 or the compound prepared in Reference example 14 respectively to prepare each vaccine. The vaccine was administered to a HLA-A*02:01 transgenic mouse, and the adjuvant activity of each vaccine was evaluated by the method of testing antigen-specific cytotoxic T-lymphocyte (CTL) induction. The RMFPNAPYL (SEQ ID No. 1) in Compound of formula 4 and VLDFAPPGA (SEQ ID No. 5) in Peptide SEQ ID No. 3 correspond to antigen peptides derived from an HLA-A*02:01-restricted WT1 protein.
HLA-A*02:01 transgenic mouse (C57BL/6CrHLA-A2.1DR1) lacks mouse MHC, and instead expresses a chimeric HLA of a human MHC (HLA-A*02:01) and a mouse MHC (H-2D^b), and HLA-DRB1*01:01. The mouse can evaluate the pharmacological activity of immunotherapeutic agents including a peptide which induces CTLs in HLA-A*02:01-positive human (Eur J Immunol. 2004; 34: 3060-9). In addition, the mouse can also evaluate the induction of a helper peptide which can bind to a human HLA-DRB1*01:01 to induce a helper T-cell, and the enhancing effect for inducing CTLs.
The character for inducing CTLs specific to the antigen peptide (SEQ ID No. 1 or SEQ ID No. 5) by vaccine a was evaluated by measuring whether IFNγ can be produced upon stimulation of splenocytes from the mouse with the peptide. In addition, the character for exerting in vivo adjuvant activity by the compound in Example 3 or the compound in Reference example 14 was evaluated by comparing the number of CTLs induced by vaccine a and the number of CTLs induced by the vaccine prepared by adding the compound prepared in Example 3 or the compound in Reference example 14 to vaccine a, and checking presence or absence of the increase on the number.
0.312 g of sodium dihydrogen phosphate dihydrate was dissolved in 80 g of water for injection. 14.0 g of ethyl oleate, 14.0 g of octyldodecyl myristate, 2.0 g of sorbitan monooleate, 2.8 g of glyceryl monooleate, 0.4 g of polyoxyethylene hydrogenated castor oil 20, and 0.4 g of glycerin were mixed. 2.354 mL of the mixture (corresponding to 2.077 g) was put into a test tube, and 0.396 mL of the aqueous sodium dihydrogen phosphate (corresponding to 0.396 g) was gradually added into the test tube which was being stirred with a mixer (ULTRA-TURRAX T10, IKA, or Touch Mixer MT-51, Yamato Scientific) to emulsify the mixture in the test tube. The obtained emulsion was referred to as preliminary emulsified composition. The amount of the preparation was adjusted as appropriate.
Compound of formula 4 and Peptide SEQ ID No. 3 were dissolved in DMSO, and then diluted with water for injection to concentrations of Compound of formula 4 of 3 mg/ml and Peptide of SEQ ID No. 3 of 2.25 mg/ml. The diluted peptide solution was mixed and emulsified with an equal volume of the above preliminary emulsified composition to prepare vaccine a. Vaccine a was injected to mice intradermally at the tail base area in an amount for administering 300 μg of Compound of formula 4 per body and 225 μg of Peptide SEQ ID No. 3 per body. Or, in the step of preparing vaccine a, the compound prepared in Example 3 was added to the diluted peptide solution to prepare a vaccine, and the prepared vaccine was injected to mice intradermally at the tail base area in an amount for administering 300 μg of Compound of formula 4 per body, 225 μg of Peptide SEQ ID No. 3 per body, and 32.5 ng of the compound prepared in Example 3 per body. […]

[3] = Example 3 32.5 ng per body versus Reference example 14 17.5 ng per body, added to vaccine

| Compound | increase of the CTL counts (Peptide SEQ ID No. 5) compared with Reference example 12 ([1]; Example 2 325 ng per body versus Reference example 12 225 ng per body, added to vaccine) | CTL counts responsive to Peptide SEQ ID No. 5 [1] | increase of the CTL counts (Peptide SEQ ID No. 1) compared with Reference example 14 [2, 3] | increase of the CTL counts (Peptide SEQ ID No. 5) compared with Reference example 14 [2, 3] | CTL counts responsive to Peptide SEQ ID No. 1 (IFNγ-producing cells) [2] | CTL counts responsive to Peptide SEQ ID No. 5 (IFNγ-producing cells) [2] |
| --- | --- | --- | --- | --- | --- | --- |
| CCCCOc1nc(N)c2[nH]c(=O)n(Cc3ccc(CN(C)CCOCCOCCOCCOCCO)nc3)c2n1 [Example 2, 6-amino-2-butoxy-9-{[6-(16-hydroxy-2-methyl-5,8,11,14-tetraoxa-2-azahexadecan-1-yl)pyridin-3-yl]methyl}-7,9-dihydro-8H-purin-8-one-trifluoroacetate] | more | more | – | – | – | – |
| CCCCOc1nc(N)c2[nH]c(=O)n(Cc3ccc(CN(C)CCOCCOCCOCCOCCO)cc3)c2n1 [Example 3, 6-amino-2-butoxy-9-{[4-(16-hydroxy-2-methyl-5,8,11,14-tetraoxa-2-azahexadecan-1-yl)phenyl]methyl}-7,9-dihydro-8H-purin-8-one] | – | – | more | more | increased | increased |
| CCCCOc1nc(N)c2[nH]c(=O)n(Cc3ccc(CNC)nc3)c2n1 [Reference example 12, reference compound] | – | more | – | – | – | – |
| CCCCOc1nc(N)c2[nH]c(=O)n(Cc3ccc(CNC)cc3)c2n1 [Reference example 14, reference compound] | – | – | – | – | increased | increased |
